Assay results as given in article PMC6270091, “GABAB-Agonistic Activity of Certain Baclofen Homologues” (Molecules, 2013).
Entries after “also recorded” stand apart in the source; their conditions may differ. Where a name gives a salt, the structure may show the parent alone.

Tests used:
[1] = molecular target: T1, GABABR1b/GABABR2 receptors co-expressed with the chimeric G protein Gαq-z5 in tsA201 cells (Rattus norvegicus, UniProt Q9Z0U4); test: GABAB agonist activity, intracellular calcium (Fluo-4) in transfected tsA201 cells; assay type: cell-based; conditions: Ca2+ response; for EC50: agonist, tsA201 cells transfected with GABAB1b/GABAB2/Gqz5; for GABABR agonistic activity (in words): tsA201 cells
T1 construct: expressed in transfected cells; host or cells: tsA201 cells (transformed HEK293), transient transfection with pcDNA3.1 plasmids using SuperFect
T1 sequence (Q9Z0U4 1-844 isoform Q9Z0U4-3): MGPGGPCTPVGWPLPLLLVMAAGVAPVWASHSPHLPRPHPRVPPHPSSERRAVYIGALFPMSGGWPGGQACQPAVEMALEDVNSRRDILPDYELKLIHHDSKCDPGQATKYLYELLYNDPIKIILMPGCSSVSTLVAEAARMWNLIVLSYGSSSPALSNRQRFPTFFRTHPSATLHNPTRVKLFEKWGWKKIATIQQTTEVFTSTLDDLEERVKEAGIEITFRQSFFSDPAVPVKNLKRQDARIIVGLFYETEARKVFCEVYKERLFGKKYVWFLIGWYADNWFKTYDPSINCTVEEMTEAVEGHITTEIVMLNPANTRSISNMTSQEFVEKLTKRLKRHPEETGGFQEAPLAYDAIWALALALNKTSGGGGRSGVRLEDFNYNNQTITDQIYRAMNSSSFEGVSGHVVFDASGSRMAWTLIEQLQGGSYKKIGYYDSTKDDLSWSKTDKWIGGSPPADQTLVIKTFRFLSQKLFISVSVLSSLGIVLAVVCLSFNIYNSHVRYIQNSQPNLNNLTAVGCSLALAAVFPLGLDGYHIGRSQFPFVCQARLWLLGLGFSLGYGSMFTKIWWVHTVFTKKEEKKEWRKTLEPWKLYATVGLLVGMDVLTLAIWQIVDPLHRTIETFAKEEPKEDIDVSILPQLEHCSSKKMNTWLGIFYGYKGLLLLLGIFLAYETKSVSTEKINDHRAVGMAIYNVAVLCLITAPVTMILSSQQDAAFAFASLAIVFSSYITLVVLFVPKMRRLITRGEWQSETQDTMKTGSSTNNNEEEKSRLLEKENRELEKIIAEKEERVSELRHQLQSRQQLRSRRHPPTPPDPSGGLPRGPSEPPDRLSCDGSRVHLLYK
T1 sequence (O88871 41-940 partner): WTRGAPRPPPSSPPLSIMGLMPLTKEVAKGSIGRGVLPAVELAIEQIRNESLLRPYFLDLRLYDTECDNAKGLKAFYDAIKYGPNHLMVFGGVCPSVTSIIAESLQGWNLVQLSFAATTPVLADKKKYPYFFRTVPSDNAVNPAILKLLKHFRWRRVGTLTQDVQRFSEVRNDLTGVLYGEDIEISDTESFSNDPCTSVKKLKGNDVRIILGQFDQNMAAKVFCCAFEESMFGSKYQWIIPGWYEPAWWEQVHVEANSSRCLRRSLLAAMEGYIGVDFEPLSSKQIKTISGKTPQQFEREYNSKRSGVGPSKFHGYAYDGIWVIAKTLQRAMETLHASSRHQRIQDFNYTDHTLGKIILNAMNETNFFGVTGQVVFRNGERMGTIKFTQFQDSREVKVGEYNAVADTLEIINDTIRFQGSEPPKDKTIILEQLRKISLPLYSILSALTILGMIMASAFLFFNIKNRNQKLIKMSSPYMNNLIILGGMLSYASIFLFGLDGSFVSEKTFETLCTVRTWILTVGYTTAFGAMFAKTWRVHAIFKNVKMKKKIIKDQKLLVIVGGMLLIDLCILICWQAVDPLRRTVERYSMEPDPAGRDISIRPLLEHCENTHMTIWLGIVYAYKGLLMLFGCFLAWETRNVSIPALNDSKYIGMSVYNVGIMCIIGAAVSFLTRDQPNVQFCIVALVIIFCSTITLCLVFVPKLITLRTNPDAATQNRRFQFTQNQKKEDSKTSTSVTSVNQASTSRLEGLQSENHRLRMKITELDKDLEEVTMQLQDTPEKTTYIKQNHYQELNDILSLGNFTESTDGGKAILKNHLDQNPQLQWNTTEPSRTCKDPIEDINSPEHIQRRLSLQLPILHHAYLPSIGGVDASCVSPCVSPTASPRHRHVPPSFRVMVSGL
Description: We have previously described a robust pharmacological assay of heterodimeric GABABR1b/GABABR2 receptors co-expressed with the chimeric G protein Gαq-z5 in tsA201 cells (a transformed HEK293 cell line). Co-expression of Gαq-z5 convert the endogenous coupling to the Gαi/o signaling pathway to the Gq pathway, which generally leads to more robust assays measured as increases in inositol phosphates or intracellular calcium levels.
Culture media, serum and antibiotics were obtained from Invitrogen (Paisley, UK). The rat GABABR plasmids and the Gαq-z5 construct were generous gifts from Dr. Janet Clark (National Institute of Health, Bethesda, MD, USA) and Dr. Bruce Conklin (University of California, San Francisco, CA, USA). The tsA201 cells were a generous gift from Dr. Penelope S. V. Jones (University of California, San Diego, CA, USA).
One million cells were split into a 10 cm tissue culture plate and transfected the following day with 0.7 μg GABABR1b-pcDNA3.1, 3.5 μg GABABR2-pcDNA3.1 and 0.7μg Gαq-z5-pcDNA using SuperFect as a DNA carrier according to the protocol by the manufacturer (Qiagen, Hilden, Germany). The day after transfection, cells were split into one poly-D-lysine coated 96-well black-walled–clear-bottomed tissue culture plates in the same medium as mentioned above and incubated overnight. The following day the measurement of intracellular calcium was performed as follows. The media was exchanged with Hanks balanced saline solution containing 1 mM CaCl2, 1 mM MgCl2, 20 mM HEPES, 2.5 mM probencid and 4 μM Fluo-4AM (pH = 7.4). […] Cells were then washed twice with the same buffer without Fluo-4AM and finally 100 μL of the buffer was left in the wells. […] Fluorescence readings were measured for 45 s after addition of ligand and response was calculated as peak response minus basal level. […] Twenty min after application of ligand, 10 μM GABA was added to the well and fluorescence was measured as above.
All data analysis has been carried out using GraphPad Prism version 6.0c for Mac OS X (GraphPad Software, San Diego, CA, USA). Concentration-response curves have been fitted by non-linear regression using the equation for sigmoidal concentration-response function:R = Rmin + (Rmax − Rmin)/(1 + 10 ^ (logEC50 − X)) in which X is the logarithm of the agonist concentration, R is the response, Rmax is the maximal response, Rmin is the minimal response and EC50 is the concentration giving half maximum response.

[2] = molecular target: T1, GABABR1b/GABABR2 receptors co-expressed with the chimeric G protein Gαq-z5 in tsA201 cells; test: GABAB antagonist test, intracellular calcium (Fluo-4) against 10 μM GABA in transfected tsA201 cells; assay type: cell-based; conditions: 1 mM concentration against 10 μM GABA
Description: Regarding the structure-activity relationship in the synthesized series 1a–i, it has to be mentioned that mono-substitution on the aromatic moiety attached to the 3-position of the DAVA backbone with a halogen, especially a para-chloro, is optimum for GABABR agonistic activity. The synthesized compounds which evoked GABABR agonistic activity have the following decreasing order of activity: 1a > 1e > 1f.
TsA201 cells (a transformed human embryonic kidney (HEK) 293 cell line) were maintained at 37 °C in a humidified 5% CO2 incubator in Dulbecco’s modified Eagle medium (DMEM) supplemented with penicillin (100 U/mL), streptomycin ([…]) and 10% fetal calf serum. One million cells were split into a 10 cm tissue culture plate and transfected the following day with 0.7 μg GABABR1b-pcDNA3.1, 3.5 μg GABABR2-pcDNA3.1 and 0.7μg Gαq-z5-pcDNA using SuperFect as a DNA carrier according to the protocol by the manufacturer (Qiagen, Hilden, Germany). The day after transfection, cells were split into one poly-D-lysine coated 96-well black-walled–clear-bottomed tissue culture plates in the same medium as mentioned above and incubated overnight. The following day the measurement of intracellular calcium was performed as follows. The media was exchanged with Hanks balanced saline solution containing 1 mM CaCl2, 1 mM MgCl2, 20 mM HEPES, 2.5 mM probencid and 4 μM Fluo-4AM (pH = 7.4). The cells were incubated for 1 h at 37 °C in a humidified 5% CO2 incubator. Cells were then washed twice with the same buffer without Fluo-4AM and finally 100 μL of the buffer was left in the wells. The cell plate was then transferred to the NovoStar (BMG Labtechnologies, Offenburg, Germany) and the basal fluorescence level was adjusted to ~10,000 fluorescence units (FU) using excitation/emission wavelengths of 485–520 nm, respectively. Fluorescence readings were measured for 45 s after addition of ligand and response was calculated as peak response minus basal level. […] Twenty min after application of ligand, 10 μM GABA was added to the well and fluorescence was measured as above.

GABAB receptors = tested on: GABAB receptors; set-up: method as in earlier work; conditions: cited from earlier work

Row | SMILES | melting point [°C] | EC50 [1] [µM] | GABABR antagonist activity [2] | also measured
1 | NCCC(CC(=O)O)c1ccc(Cl)cc1 (racemic) (as salt: hydrochloride) [Compound 1a, (R,S)-5-Amino-3-(4-chlorophenyl)pentanoic acid hydrochloride] | 201 to 203 |  |  | 
2 | NCCC(CC(=O)O)c1ccc(Cl)cc1Cl (racemic) (as salt: hydrochloride) [Compound 1b, (R,S)-5-Amino-3-(2,4-chlorophenyl)pentanoic acid hydrochloride] | 215 to 217 |  |  | 
3 | Cc1ccc(C(CCN)CC(=O)O)cc1 (racemic) (as salt: hydrochloride) [Compound 1c, (R,S)-5-Amino-3-(4-methylphenyl)pentanoic acid hydrochloride] | 204 to 206 |  |  | 
4 | NCCC(CC(=O)O)c1ccccc1 (racemic) (as salt: hydrochloride) [Compound 1d, (R,S)-5-Amino-3-phenylpentanoic acid hydrochloride] | 195 to 196 |  |  | 
5 | NCCC(CC(=O)O)c1ccc(F)cc1 (racemic) (as salt: hydrochloride) [Compound 1f, (R,S)-5-Amino-3-(4-fluorophenyl)pentanoic acid hydrochloride] | 208 to 210 |  |  | 
6 | COc1cccc(C(CCN)CC(=O)O)c1 (racemic) (as salt: hydrochloride) [Compound 1g, (R,S)-5-Amino-3-(3-methoxyphenyl)pentanoic acid hydrochloride] | 182 to 184 |  |  | 
7 | NCCC(CC(=O)O)c1ccccc1 (racemic) [Compound 1d, (R,S)-5-Amino-3-phenylpentanoic acid hydrochloride] |  | > 300 | none of these compounds were effective | 
8 | NCCC(CC(=O)O)c1ccc(Cl)c(Cl)c1 (racemic) [Compound 1e, (R,S)-5-Amino-3-(3,4-chlorophenyl)pentanoic acid hydrochloride] |  | 130 |  | 
9 | COc1cccc(C(CCN)CC(=O)O)c1 (racemic) [Compound 1g, (R,S)-5-Amino-3-(3-methoxyphenyl)pentanoic acid hydrochloride] |  | > 300 | none of these compounds were effective | 
10 | NCCCC(C(=O)O)c1ccc(Cl)cc1 (racemic) [Compound 3, (R,S)-5-amino-2-(4-chlorophenyl)pentanoic acid] |  |  |  | interaction with GABAB receptors (GABAB receptors): does not interact detectably

Continued, in another order:

Row | melting point [°C] | EC50 [1] [µM] | GABABR antagonist activity [2] | SMILES | also measured
11 | 201 to 203 |  |  | NCCC(CC(=O)O)c1ccc(Cl)c(Cl)c1 (racemic) (as salt: hydrochloride) [Compound 1e, (R,S)-5-Amino-3-(3,4-chlorophenyl)pentanoic acid hydrochloride] | 
12 | 194 to 195 |  |  | COc1ccc(C(CCN)CC(=O)O)cc1 (racemic) (as salt: hydrochloride) [Compound 1h, (R,S)-5-Amino-3-(4-methoxyphenyl)pentanoic acid hydrochloride] | 
13 |  | 46 |  | NCCC(CC(=O)O)c1ccc(Cl)cc1 (racemic) [Compound 1a, (R,S)-5-Amino-3-(4-chlorophenyl)pentanoic acid hydrochloride] | 
14 |  | > 300 | none of these compounds were effective | NCCC(CC(=O)O)c1ccc(Cl)cc1Cl (racemic) [Compound 1b, (R,S)-5-Amino-3-(2,4-chlorophenyl)pentanoic acid hydrochloride] | GABABR agonistic activity (in words) [1]: lack of GABABR agonistic activity
15 |  | > 300 | none of these compounds were effective | Cc1ccc(C(CCN)CC(=O)O)cc1 (racemic) [Compound 1c, (R,S)-5-Amino-3-(4-methylphenyl)pentanoic acid hydrochloride] | 
16 |  | 170 |  | NCCC(CC(=O)O)c1ccc(F)cc1 (racemic) [Compound 1f, (R,S)-5-Amino-3-(4-fluorophenyl)pentanoic acid hydrochloride] | 
17 |  | > 300 | none of these compounds were effective | COc1ccc(C(CCN)CC(=O)O)cc1 (racemic) [Compound 1h, (R,S)-5-Amino-3-(4-methoxyphenyl)pentanoic acid hydrochloride] | 
18 | 164 to 165 | > 300 | none of these compounds were effective | CC(CCN)CC(=O)O (racemic) [Compound 1i, (R,S)-5-amino-3-methylpentanoic acid] | GABABR agonistic activity (in words) [1]: loss of GABABR agonistic activity; also recorded: devoid of GABABR agonistic activity
